In patent US4301313A, “Halogenated ethynyl biphenyls” (Eli-Lilly and Company, priority 1974, dated 1981):
Where “and” joins values, the source holds several entries; their conditions need not be identical. Identical values can stand only once.

Legend:
[1] = ultraviolet-induced erythema blocking test, oral (modified Winder method); format: in vivo, guinea pig (male albino); conditions: Cavia porcellus, guinea pig, weighted scores 1.0-2.5 h after UV, dose which provides 50% inhibition
Experimental: The compounds of the present invention were evaluated for anti-inflammatoryactivity by the ultraviolet-induced erythema blocking test. The test procedures were a modification of the Winder method (Winder, C. V.; Wax, J.; Burr, V.; Been, M.; and Posiere, C. E.: A Study of Pharmacological Influences on Ultraviolet Erythema in Guinea Pigs. Arch. Int. Pharmacodyn. 116: 261, 1958). Male albino guinea pigs weighing 240-300 gm. were used. The hair on the back was clipped and chemically depilated 15-18 hours before each experiment. The animals were fasted overnight, and on the day of the experiment, were randomized and placed in clear plastic partitioned holders 10×20 cm. wide and 15 cm. high.
The compounds to be tested were suspended in 1% methyl cellulose in water, utilizing a tissue homogenizer. The suspensions were administered orally in a volume of 2.0 ml./kg. of body weight. Control animals received an equal amount of the vehicle.
The source of ultraviolet light was a Hanovia lamp (Kromayer-Model 10). A notebook reinforcement ring was placed upon the lens of the lamp to provide an area of contrast for grading purposes. The lens was then placed in contact with the skin of the guinea pig's back. Exposure time to UV was for a period of 4 seconds. Beginning one hour after exposure and thereafter at half-hour intervals for another 11/2 hours, the degree of resulting erythema was graded by an arbitrary scoring system based upon the degree of contrast and redness formed. Anti-inflammatory agents delay the development of the erythema and have their greatest effect at the initial grading periods. The scores were, therefore, weighted by factors of 4, 3, 2, and 1 at the 1.0, 1.5, 2.0, and 2.5 hour scoring times, respectively. The erythema was graded as follows:
Total scores from each treatment group of four guinea pigs were compared to the scores of the control group. The percent inhibition was calculated as follows: [formula] In the case of compounds showing inhibition, retesting was carried out at a plurality of doses to enable calculation of an ED50 for each such compound. "ED50 " designates that dose which provides 50% inhibition. Calculation of the ED50 was either by a standard linear regression method or by estimation from a dose-response curve of three or more points. The compounds so tested and their ED50 s were as follows: […]

[2] = carrageenin induced test, compound administered about 20 hours prior; format: in vivo; conditions: rat, dose 10 (unit not given), about 20 hours prior to test
Experimental: (§1) Representative compounds were also evaluated for anti-inflammatory activity in the test method described by C. A. Winter at 111 Proc. Soc. Exp. Biol. Med., 544 (1962). In this method, inflammation is created by injecting carrageenin into the hind paw of rats. Test compounds are administered prior to injection to determine percent inhibition of the subsequent inflammation, in comparison with control animals.
Each of 4-biphenylylacetylene and (4-(2-fluorophenyl)phenyl)acetylene was evaluated again in the carrageenin induced test method reported in Examples 60-80. However, in these tests, the compound was administered about 20 hours prior to the test procedures.

[3] = carrageenin-induced hind paw inflammation; format: in vivo; conditions: Rattus norvegicus
Experimental: as §1

[4] = adjuvant-induced arthritis test (paw volume); format: in vivo, rat (male albino); conditions: rat, oral
[5] = analgesic activity, acetic acid-induced writhing; format: in vivo, mouse (albino male); conditions: mouse, p.o., dose reducing writhing frequency by 50%; 30, 90, 180 minutes after administration
Experimental: Representative compounds were also evaluated for analgesic activity. The evaluation was conducted by using acetic acid-induced writhing in mice as the pain model. Clinically effective analgesis are effective when tested in this model: see Koster et al., "Acetic Acid for Analgesic Screening," 18 Fed. Proc. 412 (1959).
In a method similar to that reported by Koster et al., standard strain albino male mice weighing 20-22 grams were fasted overnight. The respective compound or vehicle (as control) was administered by gastric lavage (p.o.). Each compound was administered in an aqueous suspension of 1% methylcellulose in water. […] At 30, 90, and 180 minutes after administration, writhing was induced by the intraperitoneal administration of 55 mg./kg. of acetic acid (0.55%). Each treatment group consisted of 5 mice and separate groups were examined at each observation time. The total number of writhes for the treatment group were counted in a 10-minute observation period starting 5 minutes after the acetic acid administration. The treatment totals were compared to controls and a percent inhibition calculated as follows: [formula] […] An ED50, which represented the dose that would reduce the writhing frequency by 50%, was estimated from a dose-reponse curve of three or more points. A dose range was reported if only two points were availale for the dose response curve and they bracketed the 50% level. If data was available at 100 mg./kg., only, then the estimated ED50 was reported simply as less than 100 (<100).

[6] = dose not printed (line below dose 25)

C#Cc1ccc(-c2ccccc2)cc1 [4-biphenylylacetylene, 4-Biphenylylacetylene]
ED50 [1]: 0.9 mg/kg
% Inhibition [2]: 44% and 28%
inhibition in vivo at 0.5 mg/kg ([3]; 0.5 mg./kg.): 0%
inhibition in vivo at 3 mg/kg ([3]; 3 mg./kg.): 36%
inhibition in vivo at 5 mg/kg ([3]; 5 mg./kg.): 37%
inhibition in vivo at 10 mg/kg ([3]; 10 mg./kg.): 42%
inhibition in vivo at 20 mg/kg ([3]; 20 mg./kg.): 45%
inhibition in vivo at 50 mg/kg ([3]; 50 mg./kg.): 41%
Percent Inhibition of Volume Increase, Day 7 ([4]; dose 0.3 (unit not given)): 15%
Percent Inhibition of Volume Increase, Day 14 ([4]; dose 0.3 (unit not given)): 0%
Percent Inhibition of Volume Increase, Day 7 ([4]; dose 1 (unit not given)): 0%
Percent Inhibition of Volume Increase, Day 14 ([4]; dose 1 (unit not given)): 0%
Percent Inhibition of Volume Increase, Day 7 ([4]; dose 3 (unit not given)): 14%
Percent Inhibition of Volume Increase, Day 14 ([4]; dose 3 (unit not given)): 7%
Percent Inhibition of Volume Increase, Day 7 ([4]; dose 25 (unit not given)): 29%
Percent Inhibition of Volume Increase, Day 14 ([4]; dose 25 (unit not given)): 37%
Percent Inhibition of Volume Increase, Day 7 [4, 6]: 37%
Percent Inhibition of Volume Increase, Day 14 [4, 6]: 23%
Estimated ED50 [5]: 50 mg/kg
